“And” between values parts separate entries of the source, which are not always exact repeats. Identical values can stand only once. Ends that are not written are not given here.
How the values were obtained:
[1] = tested on: learning disorder-induced mouse; assay: Y-maze test on learning disorder-induced (LPS) mouse; format: in vivo; settings: for Learning ability in Y-maze test: LPS-administered mice, Examples 6 and 7
Method: The learning disorder-alleviating activity of the GLP-1 derivative was evaluated by a Y-maze test on a learning disorder-induced mouse, using the FOS 12 solution of GLP-1 derivative.
As the learning disorder-induced mouse, ddY mice (5-7 week old, male, n=5) were administered with lipopolysaccharide (LPS) by 10 μg at three days before the test. Fifteen minutes before the administration of LPS, the mice were administered with GLP-1 derivative by 3 μg with the FOS 12 solution of GLP-1 derivative.
The Y-maze test was performed by using a device having three arms of the same size. The number of times that the mouse entered the different arm for consecutive three times was counted, and the result was divided by a number obtained by deducting 2 from the total number of times of entering the arm. The result was multiplied by 100, and used as a spontaneous alternation behavior (%).
(§1) As a control, mice (5-7 week old, male, n=5 or 7), intranasally administered a solvent without GLP-1 derivative by 4 μL 15 minutes before the administration of LPS, were subjected to the same test as the above. Further, mice that were not administered with LPS (vehicle) were subjected to the same test as the above. The error bar represents mean±SE (n=5 or 7), and the statistical processing was performed by Mann-Whitney test (*P<0.05, **P<0.01).
As the learning disorder-induced mouse, ddY mice (5-7 week old, male, n=6) administered with lipopolysaccharide (LPS) by 10 μg three days before the test were used. Fifteen minutes before the administration of LPS, the mice were administered with NmU derivative by 3 μg with the FOS 12 solution of NmU derivative. A Y-maze test was performed in the same manner as Example 6, and a spontaneous alternation behavior (%) was calculated from the measurement results.
as §1, with “n=6), which were” for “n=5 or 7),”, “NmU” for “GLP-1”, “mice” for “mice that were”, “(n=6),” for “(n=5 or 7),”, “(*P<0.01, **P<0.001).” for “(*P<0.05, **P<0.01).”

rats = assay: Forced-swim test on rats (anti-depression activity); format: in vivo, rat; settings: intranasal 18 μg/day
Method: The anti-depression activity of the GLP-2 derivative was evaluated by a forced-swim test on rats using the DMSO solution of GLP-2 derivative. The forced-swim test was performed in accordance with the following procedure.
One hour before the test, rats (8-10 week old, male, n=6) were transferred to the laboratory for habituation. The rats were intranasally administered with the DMSO solution of GLP-2 derivative by 18 μg/day for two days, 30 minutes before the test. The rats were allowed to swim for 15 minutes, one by one in a transparent plastic cylinder with a diameter of 18 cm and a height of 50 cm filled with water of 25±1° C. to a height of 30 cm. During the swimming, the immobility time (s) was measured. The rats after the test were wiped with a Kimtowel and placed back to a cage. The test was performed for consecutive 2 days, day 1 as a preliminary test and day 2 as a main test. As a control, rats (8-10 week old, male, n=6) were intranasally administered with a solvent without GLP-2 derivative by 10 μL and subjected to a forced-swim test in the same manner. The error bar represents mean±SE (n=6), and the statistical processing was performed by Mann-Whitney test (*P<0.05). […]

ddY mice [2] = assay: Forced-swim test on a mouse; format: in vivo; settings: Example 3, mouse forced-swim test
Method: The anti-depression activity of the GLP-2 derivative was evaluated by a forced-swim test on a mouse. The test was performed by the following process.
Twenty-four hours before the test, ddY mice (5-7 week old, male, n=12) were subjected to a preliminary swimming for 15 minutes. The mice were administered GLP-2 derivative by 3.6 μg with the DMSO solution, on the day before the test and on the day for the test, respectively. Then, the test was performed in the same manner as Example 1, and the immobility time (s) was measured. As a control, mice (5-7 week old, male, n=12) were administered with a solution without GLP-2 derivative were subjected to a forced-swim test in the same manner. The error bar represents mean±SE (n=12), and the statistical processing was performed by Mann-Whitney test (*P<0.05).

ddY mice [3] = assay: Tail suspension test on a mouse; format: in vivo; settings: Example 4, mouse tail suspension test
Method: The anti-depression activity of the GLP-2 derivative was evaluated by a tail suspension test on a mouse, using the DMSO solution of GLP-2 derivative as prepared in Example 3. The test was performed by the following process.
On the day before the test and on the day for the test, ddY mice (5-7 week old, male, n=9) were administered with the GLP-derivative by 3.6 μg, respectively, with the DMSO solution. Then, the mice were suspended by the tail and the immobility time (s) was measured. As a control, mice (5-7 week old, male, n=9) were intranasally administered with a solvent without GLP-2 derivative and subjected to a tail suspension test in the same manner. The error bar represents mean±SE (n=9), and the statistical processing was performed by Mann-Whitney test (*P<0.05).

depression model mouse = assay: Forced-swim test on ACTH-induced treatment-resistant depression model mouse; format: in vivo; settings: Example 5, treatment-resistive depression model
Method: The anti-depression activity of the GLP-2 derivative was evaluated by a forced-swim test on a depression model […] using the DMSO solution of GLP-2 derivative as prepared in Example 3.
As the depression model mouse, ddY mice (5-7 week old, male, n=11) were administered with adrenocorticotropic hormone (ACTH) to induce an enhanced state of hypothalamic-pituitary-adrenal axis (HPA system). The administration of ACTH was performed by 0.45 mg/kg/day for consecutive 14 days.
The forced-swim test was performed in the same manner as Example 3 and the immobility time (s) was measured. The mice were intranasally administered with GLP-2 derivative by 3.6 μg as a DMSO solution of GLP-2 derivative, each day for consecutive 6 days until the day for the test. As a control, mice (5-7 week old, male, n=11) were administered with a solvent without GLP-2 derivative by 4 μL each day for consecutive 6 days and subjected to a forced-swim test in the same manner. The error bar represents mean±SE (n=11), and the statistical processing was performed by Mann-Whitney test (*P<0.01).

FFLIPKG-(R)8-(G)2-HAEGTFTSDVSSYLEGQAAKEFIAWLVKGR-NH2 [GLP-1 derivative]
Alternation behavior (%) ([1]; Example 6: LPS 10 μg three days before test, GLP-1 derivative 3 μg 15 minutes before LPS, individual animals n=5): 64.3% and 66.7% (2×) and 67.9% and 67.4% | Alternation behavior (%) ([1]; Example 6: Vehicle (mice not administered LPS), GLP-1 derivative 3 μg, individual animals n=5): 56.4% and 72.2% and 70.3% and 78.6% and 67.6%

HADGSFSDEMNTILDNLAARDFINWLIQTKITD [GLP-2]
Immobility time (rats; Comparative Example 1: GLP-2 alone, individual animals n=6): 46 s and 15 s and 45 s and 41 s and 30 s and 33 s | Immobility time / anti-depression activity versus control group (rats; Mann-Whitney test): no significant difference in the anti-depression activity | Effect of suppressing depression (ddY mice [2]): an effect of suppressing depression is obtained | Effect of suppressing depression (ddY mice [3]): an effect of suppressing depression is obtained | Effect of suppressing depression (depression model mouse): an effect of suppressing depression is obtained

YKVNEYQGPVAPSGGFFLFRPRN-NH2 [NmU, neuromedin U; label printed in b156 where the NmU derivative is probably meant, reference compound]
Learning ability in Y-maze test [1]: learning ability is significantly ameliorated

FFFFG-(R)8-(G)2-YKVNEYQGPVAPSGGFFLFRPRN-NH2 (not fully specified (N-terminus)) [NmU derivative, derivative of neuromedin U with PAS (FFFFG), octa-arginine and GG spacer]
Alternation behavior (%) ([1]; Example 7: LPS 10 μg three days before test, NmU derivative 3 μg 15 minutes before LPS, individual animals n=6): 58.6% and 72.4% and 66.7% and 60.0% and 74.1% and 69.4% | Alternation behavior (%) ([1]; Example 7: Vehicle (mice not administered LPS), NmU derivative 3 μg, individual animals n=6): 65.9% and 70.5% and 69.0% and 63.9% and 67.8% and 78.8%

HAEGTFTSDVSSYLEGQAAKEFIAWLVKGR-NH2 [GLP-1, glucagon-like peptide-1; label printed in b156 where the GLP-1 derivative is probably meant, reference compound]
Learning ability in Y-maze test [1]: learning ability is significantly ameliorated
